Values quoted from earlier work in patent US7590494B1, “Drug design based on the structure of LTA4 hydrolase” (priority 1999, dated 2009).

Target: T1, LTA4 hydrolase (Homo sapiens, UniProt P09960)
T1 sequence (P09960 1-611): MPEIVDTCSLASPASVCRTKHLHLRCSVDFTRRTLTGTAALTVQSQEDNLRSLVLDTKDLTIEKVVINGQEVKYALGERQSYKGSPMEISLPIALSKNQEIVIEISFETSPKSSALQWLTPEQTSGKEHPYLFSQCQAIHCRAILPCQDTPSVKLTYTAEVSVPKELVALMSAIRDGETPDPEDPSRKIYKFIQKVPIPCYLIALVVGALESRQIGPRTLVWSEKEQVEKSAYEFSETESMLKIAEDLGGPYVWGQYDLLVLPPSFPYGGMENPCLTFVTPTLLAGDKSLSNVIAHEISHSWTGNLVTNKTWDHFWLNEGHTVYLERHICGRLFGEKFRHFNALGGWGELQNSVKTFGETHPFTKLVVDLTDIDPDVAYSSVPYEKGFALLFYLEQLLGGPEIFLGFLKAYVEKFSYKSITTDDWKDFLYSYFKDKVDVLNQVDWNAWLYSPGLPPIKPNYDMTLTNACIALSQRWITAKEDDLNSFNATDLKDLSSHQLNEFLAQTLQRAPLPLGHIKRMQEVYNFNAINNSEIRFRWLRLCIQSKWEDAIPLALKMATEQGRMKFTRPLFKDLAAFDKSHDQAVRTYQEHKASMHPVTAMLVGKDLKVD
Conditions: qualitative statement from Örning et al. 1991

| inhibition of LTA4 hydrolase | Structure (SMILES) |
| --- | --- |
| inhibited | C[C@H](CS)C(=O)N1CCC[C@H]1C(=O)O [captopril] |
| inhibited | CC(C)C[C@H](NC(=O)[C@@H](O)[C@H](N)Cc1ccccc1)C(=O)O [bestatin] |
